Patent US11260050B2, “Combination of cotinine plus antioxidant for treatment-resistant depression and correction of astrocytes functional deficit induced by depression and other neuropathological” (UNIVERSIDAD SAN SEBASTIAN, priority 2017, dated 2022)

Tests used:
calcineurin A = assay: Western blot of calcineurin A in the hippocampus (Example 4); type: in vivo, Mice C57BL/6; conditions: conditioned mice after extinction; vs PBS-treated conditioned mice
Protocol: Three-month-old mice (n=5-6/condition) were weighed and assigned to treatment groups. Mice were treated with vehicle or drugs, starting two h after fear conditioning and daily after behavioral testing until euthanasia. Mice received daily treatments with 1. PBS (phosphate buffer saline, pH 7.4) via intranasal; 2. Cotinine (10 mg/ml) dissolved in PBS via intranasal (IN Cot, 24 μl); 3. Krill oil dissolved in PBS, via intranasal (48 mg/ml, 24 μl); 4. Cotinine (10 mg/ml) plus krill oil dissolved in PBS, via intranasal (48 mg/ml, 24 μl); 5. […] The dose of cotinine was ten times lower than the dose of oral cotinine promoting fear extinction in C57BL/6 mice.
After the behavioral testing, mice from all treatment groups were euthanized via cervical dislocation by a well-trained investigator. Brain regions of interest were dissected and stored at −20° C. for protein analyses. Each brain was divided into two parts, left and right hemispheres. […] The protein concentration of the supernatants was measured using the Bio-Rad protein assay (Bio-Rad, Hercules, Calif., USA). […] Membranes were washed with TBST and incubated with HRP-conjugated secondary antibodies (Bio-Rad) for 1 h at RT, washed with TBST and TBS, and images were acquired using My ECL imaging system and analyzed using the NIH Image J software.

restrained mice = assay: Forced swim test after chronic restraint stress (Example 2); type: in vivo, C57BL/6 male mice; conditions: IN cotinine post-treatment, p<0.01
Protocol: Mice between 2-3 months of age after one week of acclimatization were randomly divided into two groups. Stressed mice were subjected to restraint stress. Control (non-restrained) mice were allowed to move freely during this period. After the stress exposure period, mice were divided into three experimental groups: 1) Non-restrained mice treated with vehicle (PBS, pH 7.4) serving as unstressed controls (n=8); 2) Restrained mice (RS) treated with vehicle (n=8); 3), RS mice treated with 24 μl of a cotinine solution (10 mg/ml in PBS, pH 7.4) via intranasal route of administration (n=6). Treatments were administered daily until euthanasia. After two weeks of treatments mice were behaviorally tested and euthanized (FIG. 10) Intranasal delivery was performed as previously described (Hanson and Frey, 2007). Mice at 2-3 months of age were hand-restrained, positioned in a supine position, and administered two 12 μl drops of cotinine solution (10 mg/ml in PBS), or PBS alone, into both nares. Mice were given an extra 12 μl treatment drop if the mouse expelled out the solution. Mice were kept in the supine posture for 5 seconds after delivery to facilitate the delivery. The administration was performed daily until euthanasia. […] Mice were placed in a transparent cylinder filled with water at 25° C. for 5 min and behavior was recorded. […]

[1] = system: mice subjected to restraint stress; assay: Porsolt test, oral co-treatment during restraint stress (Example 1, Experiment 2); type: in vivo, C57BL/6 mice; conditions: RS mice, cotinine 5 mg/kg, KO, or mix, vs stressed vehicle
Protocol: Mice (n=5-8/condition) were treated via oral during and after restraint stress continuously until euthanasia.
Mice received daily treatments with
2. Cotinine dissolved in PBS via oral (gavage, (5 mg/kg; Cot 0.5)
3. Krill oil (KO) via oral (5 mg/ml in PBS, 50 μl) continuously from the beginning of the restraint stress until euthanasia.
To induce chronic stress, the restraint stress paradigm was used as previously described. Mice are immobilized in 50 ml falcon plastic tubes that were attached to mouse cages. The immobilization proceeded during 6 h from 9:00 AM to 3:00 PM in absence of treatments. Tubes have holes in the opposite side of the tube to allow the animal breathing and urination. Mice were almost completely immobilized for 6 h/day for 21 days after which they were permitted freely to move, eat and drink.
This test is used to measure the antidepressant effects of drugs, and consists in placing each mouse in a transparent cylinder filled with water at room temperature (RT). After a brief period of strong activity, rodents adopt a characteristic immobile posture. The time mice spent immobile is a measure of depressive-like behavior. The immobility time will be recorded during a 15-min and a next day 5-min trial. The time spent by each mouse immobile will be recorded.

mice = conditions: absence of stress, cotinine treatment for up to eight months; cited from earlier work

CN1C(=O)CC[C@H]1c1cccnc1 [Cotinine, (5S)-1-methyl-5-(3-pyridyl) pyrrolidin-2-one]
calcineurin A levels in the hippocampus (calcineurin A): significantly different from PBS-treated conditioned mice
immobility in the forced swim test (restrained mice): significantly lower than PBS-treated restrained mice
depressive-like behavior (freezing behavior) in the Porsolt test [1]: non-significant decrease in depressive-like behavior
sensory motor abilities or anxiety (mice): did not induce significant differences in sensory motor abilities or anxiety
